# Values of other authors as cited in patent US7727736B2, “Soluble phospholipids for use in clotting factor assays” (The University of North Carolina at Chapel Hill, priority 2003, dated 2010).
# Biological target: T1, factor Va (Bos taurus, UniProt Q28107)
# T1 sequence (Q28107 29-741 limits assumed): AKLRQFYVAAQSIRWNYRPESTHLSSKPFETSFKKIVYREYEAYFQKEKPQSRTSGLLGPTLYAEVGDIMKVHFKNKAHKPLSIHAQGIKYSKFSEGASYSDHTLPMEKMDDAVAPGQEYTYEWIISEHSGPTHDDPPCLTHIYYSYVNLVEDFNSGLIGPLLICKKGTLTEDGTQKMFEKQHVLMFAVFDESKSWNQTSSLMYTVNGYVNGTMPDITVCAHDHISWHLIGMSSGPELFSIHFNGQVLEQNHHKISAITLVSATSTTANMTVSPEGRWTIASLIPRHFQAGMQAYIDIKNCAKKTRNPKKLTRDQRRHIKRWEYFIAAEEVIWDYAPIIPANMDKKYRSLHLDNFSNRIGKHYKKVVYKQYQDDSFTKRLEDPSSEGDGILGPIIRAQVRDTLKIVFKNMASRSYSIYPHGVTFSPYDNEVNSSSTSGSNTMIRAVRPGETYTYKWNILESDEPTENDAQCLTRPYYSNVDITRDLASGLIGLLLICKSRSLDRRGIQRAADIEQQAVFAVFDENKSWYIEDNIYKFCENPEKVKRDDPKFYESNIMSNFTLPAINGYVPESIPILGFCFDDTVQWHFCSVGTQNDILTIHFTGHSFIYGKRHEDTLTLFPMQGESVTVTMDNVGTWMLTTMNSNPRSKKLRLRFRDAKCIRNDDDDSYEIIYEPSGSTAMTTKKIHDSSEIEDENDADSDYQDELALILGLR
# T1 sequence (Q28107 1565-2211 limits assumed): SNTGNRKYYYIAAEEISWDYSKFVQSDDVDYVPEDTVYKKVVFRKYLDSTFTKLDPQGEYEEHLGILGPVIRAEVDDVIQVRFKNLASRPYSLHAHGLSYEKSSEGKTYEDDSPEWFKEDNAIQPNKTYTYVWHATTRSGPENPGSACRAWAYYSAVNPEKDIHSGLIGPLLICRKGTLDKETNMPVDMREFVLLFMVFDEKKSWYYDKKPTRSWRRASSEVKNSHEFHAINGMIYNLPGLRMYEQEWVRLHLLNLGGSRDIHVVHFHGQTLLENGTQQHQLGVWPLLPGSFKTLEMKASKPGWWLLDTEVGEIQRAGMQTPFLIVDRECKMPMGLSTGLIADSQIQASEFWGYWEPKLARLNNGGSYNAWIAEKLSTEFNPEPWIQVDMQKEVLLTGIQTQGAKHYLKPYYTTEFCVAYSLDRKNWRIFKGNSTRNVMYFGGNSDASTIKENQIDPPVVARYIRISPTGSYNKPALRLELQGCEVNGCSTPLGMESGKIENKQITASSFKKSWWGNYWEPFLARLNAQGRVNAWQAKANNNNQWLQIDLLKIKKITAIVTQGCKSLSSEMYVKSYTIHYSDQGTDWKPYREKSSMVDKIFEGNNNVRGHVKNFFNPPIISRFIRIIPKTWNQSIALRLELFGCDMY
# Conditions: Zhai et al. (2002); read-out: kd of binding to factor Va; cited from earlier work
smiles,measurement,value
"CCCCCC(=O)OC[C@H](COP(=O)(O)OC[C@H](N)C(=O)O)OC(=O)CCCCC [C6PS, 1,2-dicaproyl-sn-glycero-3-phospho-L-serine]",Kd,~90 µM
